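In this assay, cells in 96-well plates receive the compound at five concentrations for 48 hours. Endpoints are linearly interpolated between the surrounding concentrations. Definition used: TGI = concentration required for complete inhibition of growth.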
Key:
Assay in all cases: growth of human tumour cells (NCI), 48 h
SF-295 CNS = system: SF-295 CNS
NCI-H522 lung = system: NCI-H522 lung
BT-549 breast = system: BT-549 breast
A498 renal = system: A498 renal
NCI-H460 lung = system: NCI-H460 lung
NCI-H226 lung = system: NCI-H226 lung
HCT-116 colon = system: HCT-116 colon
RPMI-8226 leukemia = system: RPMI-8226 leukemia
UACC-62 melanoma = system: UACC-62 melanoma
MCF7 breast = system: MCF7 breast

| SMILES | TGI (SF-295 CNS) [µM] | TGI (NCI-H522 lung) [µM] | TGI (BT-549 breast) [µM] | TGI (A498 renal) [µM] | TGI (NCI-H460 lung) [µM] | TGI (NCI-H226 lung) [µM] | TGI (HCT-116 colon) [µM] | TGI (RPMI-8226 leukemia) [µM] | TGI (UACC-62 melanoma) [µM] | TGI (MCF7 breast) [µM] |
| --- | --- | --- | --- | --- | --- | --- | --- | --- | --- | --- |
| COC1=CC(=O)C2=C(C1=O)[C@H]1CC[C@]3(C)[C@@H](OC(C)=O)CC[C@H]3[C@@H]1CC2 | > 100 | > 100 | > 100 | > 100 | > 100 | > 100 | > 100 | > 100 | – | – |
| CC(C)CCCC(C)[C@H]1CC[C@H]2N=C(Nc3ccccc3)CCC[C@]12C (some centres undefined) | 3.1 | – | 7.66 | 10.8 | 3.92 | 3.72 | – | 4.8 | 3.46 | 3.57 |
| O=c1oc2ccc(Cl)cc2cc1-c1cn2ccsc2n1 | > 100 | 47.9 | 70.3 | – | > 100 | – | > 100 | > 100 | > 100 | 65.4 |
| Cc1ccc(S(=O)(=O)N/N=C2\C3CC4CC(C3)C2C4)cc1 (centres undefined) | > 100 | > 100 | > 100 | – | > 100 | > 100 | – | > 100 | > 100 | > 100 |
| CCOC1=C2NC(Cc3ccc(F)cc3)=NC2C(=O)c2ccccc21 (centres undefined) | – | 46.1 | – | 87.9 | 52.4 | – | – | 37.8 | 63.3 | – |
| NS(=O)(=O)c1cc(S(N)(=O)=O)c(NC(=O)N(c2ccccc2)c2ccccc2)c(Cl)c1Cl | 95.9 | 27.1 | 36.1 | – | > 100 | 53.7 | > 100 | 44.6 | 93.2 | > 100 |
| COC(=O)C(NC(=O)CSc1nnc(COc2ccc(Cl)cc2)n1-c1ccccc1)C(C)C (centres undefined) | 42.2 | 24.7 | – | > 100 | 99.3 | 33 | 31.4 | – | 36.1 | > 100 |
| O=[N+]([O-])c1ccc(NS(=O)(=O)C(F)(F)F)cc1 | > 100 | > 100 | > 100 | > 100 | > 100 | > 100 | > 100 | – | > 100 | > 100 |
| O=C(/C=C/c1ccco1)c1cccc(C(=O)/C=C/c2ccco2)n1 | > 100 | 19.6 | 78.4 | > 100 | > 100 | > 100 | 18.5 | – | > 100 | > 100 |
| CC(=O)CC1(C)OC(N)=C(C#N)C1(C#N)C#N (centres undefined) | > 100 | > 100 | – | > 100 | – | > 100 | > 100 | > 100 | > 100 | > 100 |
| Cc1cc(S(=O)(=O)O)c(NC(=O)c2oc3cc(O)ccc3c(=O)c2C)cc1Cl | > 100 | > 100 | > 100 | – | > 100 | > 100 | > 100 | > 100 | > 100 | > 100 |
| COC(=O)n1c(C[P+](c2ccccc2)(c2ccccc2)c2ccccc2)cc2ccccc21 | 5.9 | 6.34 | – | 22.7 | 12.2 | 5.95 | 11 | 14.7 | 16.3 | – |
| CCCCCCOP(=O)(OCCCCCC)OC(C(=O)OC)C(F)(F)F (centres undefined) | > 100 | > 100 | > 100 | – | – | > 100 | > 100 | > 100 | > 100 | > 100 |
| CO[P@]1(=O)O[C@@H](c2ccccc2)[C@H](O)[C@@]1(O)c1ccccc1 | > 100 | > 100 | > 100 | > 100 | > 100 | > 100 | > 100 | – | > 100 | > 100 |
| CCOC(=O)C1CCCCc2sc(N)c(C#N)c21 (centres undefined) | – | – | > 100 | > 100 | > 100 | > 100 | > 100 | > 100 | > 100 | > 100 |
| O=S1(=O)OCCOS(=O)(=O)C1Cc1nc2ccccc2[nH]1 | > 100 | – | – | – | > 100 | – | 57 | > 100 | – | > 100 |
| COc1ccc(-c2nc(-c3cnccn3)n(C3OC(CO)C(O)C(O)C3O)n2)cc1 (centres undefined) | > 100 | > 100 | > 100 | – | > 100 | – | > 100 | > 100 | > 100 | > 100 |
| CC1(C)[C@@H]2CC[C@@]1(C)[C@H](O)[C@@H]2SCc1ccccc1 | 33 | 29.3 | – | 0.0578 | 39.9 | 39.4 | 44.4 | > 100 | 22.2 | – |
| CC(=O)c1ccc(NC(=O)CSc2nc(C)nc3c2sc(=S)n3-c2ccccc2)cc1 | > 3.16 | > 3.16 | – | > 3.16 | > 3.16 | > 3.16 | > 3.16 | > 3.16 | > 3.16 | > 10 |
| Cc1ccc2c(c1)CC1(C2=O)[C@H](c2ccccc2)C2C(=O)c3ccc(C)cc3C2[C@H]1c1ccccc1 (some centres undefined) | > 100 | > 100 | > 100 | > 100 | > 100 | > 100 | > 100 | – | > 100 | > 100 |
| CC12CC(c3ccccc3O1)C(C(=O)Nc1cccc(F)c1)C(=O)N2 (centres undefined) | > 100 | > 100 | 66.8 | > 100 | > 100 | – | > 100 | > 100 | > 100 | > 100 |
| CC(C)(C)c1ccc(-c2nnc(-c3cc(C#N)cc(-c4nnc(-c5ccc(C(C)(C)C)cc5)o4)c3)o2)cc1 | > 100 | > 100 | > 100 | > 100 | > 100 | > 100 | > 100 | > 100 | > 100 | – |
| COc1ccc(/C=C2\CCC(CNc3ccc(Br)cc3)C2=O)cc1 (centres undefined) | > 100 | – | > 100 | > 100 | > 100 | > 100 | – | 33.3 | > 100 | > 100 |
| COC(=O)CC(NC(=O)OCc1ccccc1)C(C(=O)OCc1ccccc1)C1(C)OCCO1 (centres undefined) | > 100 | – | – | > 100 | > 100 | 94.1 | > 100 | 73.7 | 59.7 | – |

Reference: PubChem BioAssay (NCI)
